A word on the IC50: it is the concentration at which inhibition is half-maximal. Read a low IC50 as higher potency.

For data set [1], the system named is heterozygous Kcnc1 R320H mice. Description: Pentylenetetrazole (PTZ) induced seizure, Kcnc1 model. The format is in vivo, mouse. As to the method:
Pentylenetetrazole (PTZ), a GABA receptor antagonist, can be used to create a common, chemically-induced seizure model, a model of generalized seizure.
Mice were acclimated to experimental area for minimum 30 minutes before experimentation. All experiments were performed between 10:00 am and 12:30 pm. The treatment compounds and PTZ were always prepared fresh.
Mice were randomly assigned either to different doses of Compound 1 (10 mg/kg, 1 mg/kg, or 0.1 mg/kg) or a vehicle control containing 0.5% methylcellulose and 0.2% tween 80, and dosed via oral gavage (p.o). Compound 1 and the vehicle control were administered 60 minutes before the injection of PTZ.
PTZ (100 mg/kg) was dissolved in saline and administered subcutaneously (s.c) to the experimental mice. The latency to full tonic-clonic seizure with hind limb extension was measured. The animals were sacrificed either at the time of hind limb extension or 40 minutes after PTZ administration if no hind limb extension was recorded.
Data were analyzed using a Mantel-Cox log-rank test. Brain tissue and plasma were collected from some mice for each dose of Compound 1 at the PTZ endpoint for PK analysis.

Data set [2] relates to healthy participants. Nature of the data set: 2-part Phase 1 trial (28 days; OXC combination): qEEG and ASSR pharmacodynamics. Particulars: Part A, 90 mg QD 28 days. The format is in vivo, human.
Description: (§5) This was a 2-part randomized, placebo-controlled Phase 1 trial in healthy participants aged 18-55 years. […] PD effects were examined on quantitative EEG (qEEG; resting and vigilant conditions) and stimulated EEG using auditory steady state response (ASSR). A total of 48 participants were enrolled; Part A, n=30; Part B, n=18.
Data set [3] has as its target T1, human NaV1.6 (Homo sapiens, UniProt Q9UQD0).
T1 construct: stably expressing either human NaV1.6 (NP_055006); expressed in transfected cells
Description: ATX-II activated late (persistent) INa block, PatchXpress patch clamp. Format: cell-based. How it is done:
(§1) HEK-293 cell lines stably expressing either human NaV1.6 (NP_055006), mouse NaV1.6 (NP_035453.2), or rat NaV1.6 (NP_062139) were used. All cells were seeded at 2×10^6 cells per Nunc T75 flask for 2 days in culture. At time of harvest for assays, the cell counts were approximately 6×10^6 cells. Cells were washed (1×) in DPBS (Hyclone, Cat #SH30028.03) for approximately 30 seconds. 1 mL of 1×0.05% Trypsin-EDTA (GIBCO Cat #25300-054) was added and swirled around to cover the bottom of the flask and was allowed to sit on the cells for approximately 4 minutes (±90% of the cells were lifted by light tapping of the flask). 10 mL of warmed media (DMEM high glucose media Hyclone, SH30022.02 supplemented with 10% Fetal Bovine Serum, 2 mM Sodium Pyruvate, 10 mM HEPES and 400 μg/mL G418) was added to inactivate the trypsin. Cells were triturated until a single cell suspension was achieved. A cell count was performed and cells were aliquoted into a 250 ml centrifuge tube at a concentration of 2×10^5/mL in +30 ml of prewarmed media. The 250 mL centrifuge tube was placed on a rocker in an incubator set at 28° C. and gently rocked for approximately 1 hour to allow cells to recover. Cell aliquots of 5 mL (1×10^6 cells) were placed in a 15 mL centrifuge tube and spun at 100×g for 2 minutes. Supernatant was removed leaving a cell pellet. 100 μL of external recording solution was added to the pellet and triturated 20 times to achieve a single cell suspension and then transferred to a 1.5 mL tube for placement in the PatchXpress® (Molecular Devices).
(§2) Compound 1 was provided as powder and prepared as 10 mM DMSO stocks in 1 dram glass vials prior to assay. Immediately prior to assay, Compound 1 was diluted with DMSO to 300×, the designated final assay concentration. Assay dilutions (1× concentration) were prepared by pipetting 3 μL of diluted Compound 1 into 897 μL of extracellular solution in a 1 mL glass shell vial. Vials were capped and vortexed until initiation of the PatchXpress® (Molecular Devices) recording protocol.
(§3) The same intracellular recording solution was used for the persistent and peak INa assays, which contained: 135 mM CsF, 10 mM CsCl, 5 mM NaCl, 10 mM HEPES, 5 mM EGTA at a pH of 7.4 (adjusted with CsOH) and a measured osmolarity of 298 mOsm (adjusted with mannitol). For the persistent INa assay, the external recording solution contained: 135 mM NaCl, 5.4 mM KCl, 5 mM glucose, 2 mM CaCl2), 1 mM MgCl2, 10 mM HEPES, and 200 nM ATX-II (sea anemone toxin, Alomone Labs; Jerusalem, Israel) at a pH of 7.4 (adjusted with NaOH) and a measured osmolarity of 300 mOsm (adjusted with mannitol). For the peak INa assays, the external recording solution contained: 100 mM NaCl, 35 mM NMDG, 5.4 mM KCl, 5 mM glucose, 2 mM CaCl2), 1 mM MgCl2, and 10 mM HEPES at a pH of 7.4 (adjusted with NaOH) and a measured osmolarity of 300 mOsm (adjusted with mannitol).
(§4) All studies were performed using the PatchXpress® (Molecular Devices) automated patch clamp platform (Molecular Devices) using the whole cell configuration. Recordings were performed at room temperature. Data were collected using Patch Commander software (Molecular Devices) and processed using DataXpress 2.0 (Molecular Devices). Cell acceptance criteria were continuously monitored by custom scripts during the recording. Acceptance criteria for all assays were: baseline peak INa>800 pA, Rseal>200 MΩ, and, where appropriate, persistent INa>100 pA. Compensation was 50% and leak subtraction was not used. Currents were filtered at 5 kHz and digitized at 32.5 kHz. Raccess and Rseal were monitored throughout the recording and cells with Raccess>10 MΩ or Rseal<200 MΩ were terminated automatically by script.
Late (persistent) current Block: The inhibition of ATX-II activated late current was measured using a 200 ms voltage step to 0 mV. Protocols used low stimulation rates (about 0.1 Hz) and negative potentials (−120 mV) to keep channels in closed (resting) states.
In general terms: In patch-clamp work, channel activity is measured electrically.

The nature of data set [4]: 2-part Phase 1 trial (28 days; OXC combination): pharmacokinetics.
Description: as §5
Data set [5] has as its target T1, human NaV1.6. Nature of the data set: Peak INa voltage-dependent block (VDB), PatchXpress patch clamp. The format is cell-based. As to the method: as §1, §2, §3, §4
Voltage Dependent Block (VDB): VDB protocols used a depolarized voltage to keep channels in half-inactivated (resting) states. This allowed equilibrium binding and accurate determination of isoform selectivity (in the absence of biological features).

The nature of data set [6]: Preliminary exposure data from first 12 participants (Example 9 study). Format: in vivo, human.
The target in data set [7] is T1, human NaV1.6. Nature of the data set: Peak INa tonic block (TB), PatchXpress patch clamp. The format is cell-based. How it is done:
as §1, §2, §3, §4
Tonic Block (TB): Tonic Block (TB) protocols used low stimulation rates (about 0.1 Hz) and negative potentials (−120 mV) to keep channels in closed (resting) states. Pharmacology was measured during peak INa in response to step to 0 mV. No leak subtraction was used.

Entries after “also recorded” stand apart in the source; their conditions may differ.

T1 sequence (Q9UQD0 whole entry): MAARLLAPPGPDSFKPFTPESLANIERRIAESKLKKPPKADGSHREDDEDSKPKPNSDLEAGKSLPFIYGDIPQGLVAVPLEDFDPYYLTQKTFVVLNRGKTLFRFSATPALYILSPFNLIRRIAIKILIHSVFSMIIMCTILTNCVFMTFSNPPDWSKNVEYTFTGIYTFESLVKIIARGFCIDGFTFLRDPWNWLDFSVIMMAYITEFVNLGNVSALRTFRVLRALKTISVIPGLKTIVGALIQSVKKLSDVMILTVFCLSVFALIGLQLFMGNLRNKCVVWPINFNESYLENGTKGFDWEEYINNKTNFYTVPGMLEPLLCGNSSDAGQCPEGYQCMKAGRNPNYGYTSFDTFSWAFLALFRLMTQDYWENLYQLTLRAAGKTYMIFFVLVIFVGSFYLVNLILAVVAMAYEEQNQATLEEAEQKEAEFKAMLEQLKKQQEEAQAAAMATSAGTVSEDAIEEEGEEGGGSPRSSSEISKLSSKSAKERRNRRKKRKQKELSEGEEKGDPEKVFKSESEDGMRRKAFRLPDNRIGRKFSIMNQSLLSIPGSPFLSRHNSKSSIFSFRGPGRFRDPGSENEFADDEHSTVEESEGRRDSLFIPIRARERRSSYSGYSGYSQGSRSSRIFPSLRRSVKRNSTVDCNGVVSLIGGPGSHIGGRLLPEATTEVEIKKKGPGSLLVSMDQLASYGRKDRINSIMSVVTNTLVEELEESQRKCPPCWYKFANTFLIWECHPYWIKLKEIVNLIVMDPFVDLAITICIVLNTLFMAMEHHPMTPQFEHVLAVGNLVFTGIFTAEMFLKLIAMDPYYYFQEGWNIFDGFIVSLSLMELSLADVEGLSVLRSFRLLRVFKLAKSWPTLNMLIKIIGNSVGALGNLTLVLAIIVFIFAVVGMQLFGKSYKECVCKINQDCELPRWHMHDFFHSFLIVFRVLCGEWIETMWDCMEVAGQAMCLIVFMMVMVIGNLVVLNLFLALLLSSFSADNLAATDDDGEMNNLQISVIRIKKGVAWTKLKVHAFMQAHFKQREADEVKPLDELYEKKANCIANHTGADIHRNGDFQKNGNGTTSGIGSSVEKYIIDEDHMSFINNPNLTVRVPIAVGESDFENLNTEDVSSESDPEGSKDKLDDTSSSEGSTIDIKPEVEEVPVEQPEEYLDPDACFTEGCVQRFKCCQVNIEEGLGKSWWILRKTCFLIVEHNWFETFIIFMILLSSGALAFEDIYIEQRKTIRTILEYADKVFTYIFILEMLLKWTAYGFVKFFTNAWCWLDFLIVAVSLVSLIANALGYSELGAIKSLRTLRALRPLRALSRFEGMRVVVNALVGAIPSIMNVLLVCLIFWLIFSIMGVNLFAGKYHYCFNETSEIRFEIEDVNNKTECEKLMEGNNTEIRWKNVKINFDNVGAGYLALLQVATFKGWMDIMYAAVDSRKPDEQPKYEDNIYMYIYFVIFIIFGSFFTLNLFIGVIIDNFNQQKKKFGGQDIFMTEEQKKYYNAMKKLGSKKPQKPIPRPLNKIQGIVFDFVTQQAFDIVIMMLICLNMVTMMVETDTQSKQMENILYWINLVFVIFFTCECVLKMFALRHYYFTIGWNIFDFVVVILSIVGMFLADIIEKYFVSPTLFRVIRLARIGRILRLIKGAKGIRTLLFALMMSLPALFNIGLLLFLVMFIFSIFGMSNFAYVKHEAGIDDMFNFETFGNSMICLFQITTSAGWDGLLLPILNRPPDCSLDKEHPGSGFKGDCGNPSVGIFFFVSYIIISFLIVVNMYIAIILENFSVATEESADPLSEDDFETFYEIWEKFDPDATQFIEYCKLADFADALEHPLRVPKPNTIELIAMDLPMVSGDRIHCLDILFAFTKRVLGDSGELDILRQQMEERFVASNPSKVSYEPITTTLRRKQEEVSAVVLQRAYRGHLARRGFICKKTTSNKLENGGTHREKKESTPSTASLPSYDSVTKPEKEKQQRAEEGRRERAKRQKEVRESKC

As to `CCOC(F)(F)c1nnc2cnc(-c3cnc(OCC(F)(F)F)c(F)c3)cn12` [Compound 1, 3-(ethoxydifluoromethyl)-6-(5-fluoro-6-(2,2,2-trifluoroethoxy)pyridin-3-yl)-[1,2,4]triazolo[4,3-a]pyrazine], the “efficacy in KCNC1 R320H PTZ seizure model” value in data set [1] (10 mg/kg p.o., 60 min before PTZ 100 mg/kg s.c.) is “highly efficacious”. Besides, in data set [1] (Kcnc1 DEE mouse model, PTZ), the “protection from hindlimb extension (FIG. 14D)” value is recorded as “robust anticonvulsant activity”. The “qEEG (Delta and Theta power) and ASSR (PLF and Evoked Power) vs placebo” value in data set [2] is reported as “Statistically significant differences”. In addition, the IC50 in data set [3] (hNaV1.6, ATX-II-evoked, holding −120 mV) is 0.141 µM; in data set [5] (hNaV1.6, half-inactivated (V1/2)), 0.317 µM; in data set [7] (hNaV1.6, 0.1 Hz, resting state), 8.47 µM. In addition, in data set [3] (hNaV1.6, all assay conditions), the “preference for persistent INa relative to peak INa” value is “preference for persistent INa”. Further, the “approach to steady state” value in data set [4] (90 mg QD for 28 days, Part A) was “approached steady state”. Besides, the “increase in Compound 1 concentrations over human-equivalent dose required for efficacy in preclinical MES models” value in data set [4] (Part A, 90 mg QD) is listed as 13 fold. In addition, the “Compound 1 exposure with OXC coadministration” value in data set [4] (Part B, data not shown) was “did not appear to be altered”. Moreover, the “Ratio to Pers. INa (Peak INa VDB / persistent INa)” value in data set [5] (hNaV1.6) came to 2.2. Besides, in data set [6], the “Compound 1 exposures on Day 1 (after single dose)” value is recorded as “above therapeutic range; also recorded: above predicted therapeutic levels”. Besides, the “exposure after 28 days of once daily dosing and auto-titration” value in data set [6] is “approaching steady-state; also recorded: approaches steady state”. In data set [7] (hNaV1.6), the “Ratio to Pers. INa (Peak INa TB / persistent INa)” value came out at 60.

(Values after patent US12582652B2, “3-(ethoxydifluoromethyl)-6-(5-fluoro-6-(2,2,2-trifluoroethoxy)pyridin-3-yl)-[1,2,4]triazolo[4,3-a]pyrazine as an ion channel modulator” (Praxis Precision Medicines, Inc., priority 2022, dated 2026).)
